Among the data in ChEMBL document CHEMBL3044919 (Med Chem Res, 2005) are Ki and Ratio Ki values, retold here.

For assay [1], the target named is Sigma non-opioid intracellular receptor 1 (Cavia porcellus, UniProt Q60492). Briefly: Displacement of [3H](+)pentazocine from sigma-1 receptor in Cavia porcellus (guinea pig) brain membranes. More on the design: species or system Membrane.
The nature of assay [2]: Displacement of [3H]DTG from sigma-1 receptor in Cavia porcellus (guinea pig) brain membranes. Set-up: species or system Membrane.
Another assay is filed under the species Cavia porcellus. The experiment in a line: Selectivity ratio of Ki for sigma-2 receptor in Cavia porcellus (guinea pig) brain membranes to Ki for sigma-1 receptor in Cavia porcellus (guinea pig) brain membranes.
The target of another assay is Histamine H1 receptor (Homo sapiens, UniProt P35367). The experiment in a line: Binding affinity to histamine H1 (unknown origin).
Assay [3] addresses T1, Adrenergic receptor alpha-2 (Homo sapiens, UniProt P08913+P18825+P18089).
T1 sequence (P08913 whole entry): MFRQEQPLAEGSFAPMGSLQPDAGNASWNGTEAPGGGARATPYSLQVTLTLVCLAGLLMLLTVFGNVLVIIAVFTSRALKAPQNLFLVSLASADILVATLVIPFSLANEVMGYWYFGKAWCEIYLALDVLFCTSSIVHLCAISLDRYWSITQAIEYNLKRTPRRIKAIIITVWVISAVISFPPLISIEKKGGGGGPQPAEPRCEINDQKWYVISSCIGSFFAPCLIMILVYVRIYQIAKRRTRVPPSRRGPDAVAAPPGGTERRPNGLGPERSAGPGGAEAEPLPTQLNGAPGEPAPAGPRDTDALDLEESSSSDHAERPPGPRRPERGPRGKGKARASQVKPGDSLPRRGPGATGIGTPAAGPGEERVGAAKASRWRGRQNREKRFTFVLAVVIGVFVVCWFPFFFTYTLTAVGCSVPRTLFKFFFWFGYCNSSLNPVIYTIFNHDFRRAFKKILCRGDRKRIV
T1 sequence (P18825 whole entry): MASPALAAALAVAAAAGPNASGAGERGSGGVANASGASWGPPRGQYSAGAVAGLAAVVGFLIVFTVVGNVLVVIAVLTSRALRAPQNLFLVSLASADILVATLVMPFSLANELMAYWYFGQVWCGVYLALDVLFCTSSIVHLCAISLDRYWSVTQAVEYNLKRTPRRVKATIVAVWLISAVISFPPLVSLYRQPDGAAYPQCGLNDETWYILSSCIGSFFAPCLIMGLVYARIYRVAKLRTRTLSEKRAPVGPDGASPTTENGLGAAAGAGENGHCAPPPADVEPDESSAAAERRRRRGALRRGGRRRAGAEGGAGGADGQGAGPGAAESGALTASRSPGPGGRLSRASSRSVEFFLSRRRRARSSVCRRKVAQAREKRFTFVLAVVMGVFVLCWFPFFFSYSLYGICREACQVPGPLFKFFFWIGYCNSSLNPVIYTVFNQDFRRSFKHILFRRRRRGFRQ
T1 sequence (P18089 whole entry): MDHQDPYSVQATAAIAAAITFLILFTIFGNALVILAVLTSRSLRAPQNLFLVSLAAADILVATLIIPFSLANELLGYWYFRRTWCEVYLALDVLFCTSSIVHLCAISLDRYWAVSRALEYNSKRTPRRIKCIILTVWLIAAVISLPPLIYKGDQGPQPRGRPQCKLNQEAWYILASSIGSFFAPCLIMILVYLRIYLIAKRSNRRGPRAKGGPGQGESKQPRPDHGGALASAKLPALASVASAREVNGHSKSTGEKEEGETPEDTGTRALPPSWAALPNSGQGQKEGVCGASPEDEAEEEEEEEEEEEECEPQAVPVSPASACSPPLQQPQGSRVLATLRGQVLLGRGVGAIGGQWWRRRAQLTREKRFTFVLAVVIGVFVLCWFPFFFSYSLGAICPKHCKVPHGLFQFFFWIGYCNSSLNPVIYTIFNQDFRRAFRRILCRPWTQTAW
The experiment in a line: Binding affinity to alpha2 receptor (unknown origin).

Assay [4] concerns the target Kappa-type opioid receptor (Homo sapiens, UniProt P41145). The experiment in a line: Binding affinity to Kappa opioid receptor (unknown origin).

Molecules are shown by their SMILES.

Chain of Sigma non-opioid intracellular receptor 1 (Q60492 whole entry): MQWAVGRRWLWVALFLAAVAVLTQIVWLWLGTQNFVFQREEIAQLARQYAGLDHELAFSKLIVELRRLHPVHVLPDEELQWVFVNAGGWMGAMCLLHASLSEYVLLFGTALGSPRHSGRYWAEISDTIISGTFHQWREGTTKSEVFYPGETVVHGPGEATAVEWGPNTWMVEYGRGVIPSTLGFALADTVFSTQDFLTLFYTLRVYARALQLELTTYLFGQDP
Chain of Histamine H1 receptor (P35367 whole entry): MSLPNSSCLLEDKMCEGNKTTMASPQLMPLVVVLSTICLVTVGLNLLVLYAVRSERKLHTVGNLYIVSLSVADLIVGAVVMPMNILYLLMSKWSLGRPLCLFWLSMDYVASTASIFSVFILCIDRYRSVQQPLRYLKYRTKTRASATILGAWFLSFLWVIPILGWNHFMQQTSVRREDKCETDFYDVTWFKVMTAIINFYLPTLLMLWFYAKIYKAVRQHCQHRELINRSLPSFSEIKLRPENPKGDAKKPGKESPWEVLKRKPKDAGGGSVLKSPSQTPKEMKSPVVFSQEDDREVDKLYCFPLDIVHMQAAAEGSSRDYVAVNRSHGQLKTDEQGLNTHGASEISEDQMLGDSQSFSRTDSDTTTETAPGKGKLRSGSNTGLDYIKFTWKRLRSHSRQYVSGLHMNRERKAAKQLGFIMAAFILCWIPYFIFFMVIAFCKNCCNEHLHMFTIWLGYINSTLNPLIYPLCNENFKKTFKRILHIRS
Chain of Kappa-type opioid receptor (P41145 whole entry): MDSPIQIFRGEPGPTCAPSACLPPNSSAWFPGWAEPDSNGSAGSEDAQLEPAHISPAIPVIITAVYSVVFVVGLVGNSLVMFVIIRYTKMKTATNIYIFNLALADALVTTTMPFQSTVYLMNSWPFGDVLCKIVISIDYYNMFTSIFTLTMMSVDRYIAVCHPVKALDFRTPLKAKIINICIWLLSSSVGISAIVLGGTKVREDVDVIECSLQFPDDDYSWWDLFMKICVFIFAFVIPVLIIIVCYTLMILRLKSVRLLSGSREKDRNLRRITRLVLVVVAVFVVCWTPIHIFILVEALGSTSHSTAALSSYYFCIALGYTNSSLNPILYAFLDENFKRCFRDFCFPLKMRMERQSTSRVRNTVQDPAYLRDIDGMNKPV

For the compound `CCCc1ccc2c(c1)sc(=O)n2CCCN1CCCCC1`, the values for the Ki in assay [1] and in assay [2] were 1.2 nM and over 1000 nM, respectively. In the assay listed under Cavia porcellus, the Ratio Ki was over 1000.
Consider `CCCc1ccc2c(c1)sc(=O)n2CCN1CCCCCC1`, for which the Ki in assay [1] was 0.56 nM; in assay [2], over 1000 nM; on Histamine H1 receptor, 311 nM; in assay [3] it was 205 nM. Further, the Ratio Ki in the assay filed under Cavia porcellus is over 1000.
For the compound `O=C(c1ccc2c(c1)sc(=O)n2CCN1CCCCC1)C1CC1`, the inhibitory constant (Ki) in assay [1] and in assay [2] was over 1000 nM throughout.
`CCCc1ccc2c(c1)sc(=O)n2CCCCN1CCCCC1`: the values for the Ki in assay [1] and in assay [2] were 2.9 nM and 13 nM, respectively. Further, the Ratio Ki in the assay listed under Cavia porcellus is 4.5.
With `CCC(=O)c1ccc2c(c1)sc(=O)n2CCCN1CCCCC1`, the Ki in assay [1] was found to be 2.3 nM; in assay [2], 202 nM. Besides, the Ratio Ki in the assay filed under Cavia porcellus turned out to be 87.
For `CCCc1ccc2c(c1)sc(=O)n2CCN1C[C@]2(C)CCC[C@]2(C)C1`, the Ki was 1.4 nM in assay [1] and over 1000 nM in assay [2].
As to `CCCc1ccc2c(c1)sc(=O)n2CCN1CCCCC1`, the results for the Ki in assay [1] and in assay [2] were 0.6 nM and 18 nM, respectively. In the assay listed under Cavia porcellus, the Ratio Ki stood at 30.
On to `CCCc1ccc2c(c1)OCC(=O)N2CCN1CCCCC1`, for which the Ki in assay [1] is 28 nM; in assay [2], over 1000 nM.
Regarding `CCC(=O)c1ccc2c(c1)oc(=O)n2CCCN1CCCCC1`, the Ki turned out to be 8.5 nM in assay [1] and 496 nM in assay [2]. For the same compound, the Ratio Ki in the assay listed under Cavia porcellus turned out to be 58.
With `CN(C[C@@H]1C[C@@]1(CO)c1ccccc1)C12CC3CC(CC(C3)C1)C2` (relative stereo), the Ki worked out at 418 nM in assay [4] and 1.26 nM in assay [1]. The Ratio Ki in the assay listed under Cavia porcellus turned out to be 2.
Regarding `CCCCc1ccc2c(c1)sc(=O)n2CCN1CCCCC1`, the Ki was 3.7 nM in assay [1] and over 1000 nM in assay [2].
